The values below come from ChEMBL document CHEMBL2074198, “Influence of passive permeability on apparent P-glycoprotein kinetics” (Pharm Res, 2000).

The target in series [1] is T1, ATP-dependent translocase ABCB1 (Homo sapiens, UniProt P08183). The experiment in a line: TP_TRANSPORTER: inhibition of Vinblastine transepithelial transport (basal to apical)(Vinblastine: 0.004 uM, Nicardipine: 60 uM) in Caco-2 cells. The note with it: caco-2, 60 µM. Type of series: functional, cell-based. In general terms: Caco-2 monolayers are a common model of the intestinal barrier.

In series [2] the target is T1, ATP-dependent translocase ABCB1. In words: TP_TRANSPORTER: inhibition of Vinblastine transepithelial transport (basal to apical) (Vinblastine: 0.004 uM, […]: 3000 uM) in Caco-2 cells. Type of series: functional, cell-based. The note with it: caco-2, 3000 µM.

T1 sequence (P08183 whole entry): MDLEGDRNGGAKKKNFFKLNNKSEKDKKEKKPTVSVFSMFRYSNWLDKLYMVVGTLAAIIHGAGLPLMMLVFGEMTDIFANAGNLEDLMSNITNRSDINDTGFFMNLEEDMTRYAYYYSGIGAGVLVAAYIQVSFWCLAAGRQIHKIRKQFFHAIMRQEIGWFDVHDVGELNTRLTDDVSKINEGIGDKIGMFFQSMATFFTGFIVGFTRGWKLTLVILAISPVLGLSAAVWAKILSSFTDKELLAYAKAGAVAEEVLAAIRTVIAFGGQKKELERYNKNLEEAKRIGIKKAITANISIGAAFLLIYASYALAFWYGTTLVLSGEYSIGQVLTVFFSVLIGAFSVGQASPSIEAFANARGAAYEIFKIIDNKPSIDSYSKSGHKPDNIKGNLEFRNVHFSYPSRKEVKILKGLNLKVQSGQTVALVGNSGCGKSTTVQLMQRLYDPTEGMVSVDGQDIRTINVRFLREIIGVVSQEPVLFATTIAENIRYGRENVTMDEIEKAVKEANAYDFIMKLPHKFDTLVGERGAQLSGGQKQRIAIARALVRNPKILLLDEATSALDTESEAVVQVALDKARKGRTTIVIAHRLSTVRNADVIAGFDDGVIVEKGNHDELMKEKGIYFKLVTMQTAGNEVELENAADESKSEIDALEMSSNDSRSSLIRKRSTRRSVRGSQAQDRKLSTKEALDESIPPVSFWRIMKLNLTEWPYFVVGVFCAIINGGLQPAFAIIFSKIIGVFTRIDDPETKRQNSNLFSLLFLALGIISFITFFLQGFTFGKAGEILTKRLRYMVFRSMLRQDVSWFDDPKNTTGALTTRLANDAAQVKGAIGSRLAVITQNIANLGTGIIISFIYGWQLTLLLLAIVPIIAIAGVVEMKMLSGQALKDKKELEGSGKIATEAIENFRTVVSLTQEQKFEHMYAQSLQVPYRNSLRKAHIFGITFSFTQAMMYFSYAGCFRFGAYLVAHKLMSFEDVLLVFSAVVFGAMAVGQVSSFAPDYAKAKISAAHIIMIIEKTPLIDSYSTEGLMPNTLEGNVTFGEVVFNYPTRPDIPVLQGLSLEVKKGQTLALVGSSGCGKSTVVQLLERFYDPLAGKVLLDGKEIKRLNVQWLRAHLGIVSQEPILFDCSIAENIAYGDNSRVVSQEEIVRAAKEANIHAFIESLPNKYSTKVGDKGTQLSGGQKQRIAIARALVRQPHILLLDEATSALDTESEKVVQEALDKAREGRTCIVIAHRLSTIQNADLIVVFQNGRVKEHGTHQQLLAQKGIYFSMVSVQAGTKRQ

Take `COC(=O)C1=C(C)NC(C)=C(C(=O)OCCN(C)Cc2ccccc2)C1c1cccc([N+](=O)[O-])c1` (configuration not stated) [NICARDIPINE]: the Activity result in series [1] is “inhibitor [+]”.

As for `CNC(=C[N+](=O)[O-])NCCSCc1ccc(CN(C)C)o1` [RANITIDINE], in series [2], the Activity entry was “inhibitor [+]”.
